From US9834542B2, “LXR modulators” (BRISTOL-MYERS SQUIBB COMPANY, priority 2013, dated 2017) come the findings set out here.

As a reminder, the EC50 is the concentration needed to bring the measured effect to its halfway point.

This experiment addresses T1, LXRβ (Homo sapiens, UniProt P55055).
T1 construct: Co-transfection expression plasmids, comprising full-length LXRα (pCMX-h LXRα[…] or LXRβ (pCMX-hLXRβ)); expressed in transfected cells; host or cells: CV-1 African Green Monkey Kidney Cells
T1 sequence (P55055 1-460): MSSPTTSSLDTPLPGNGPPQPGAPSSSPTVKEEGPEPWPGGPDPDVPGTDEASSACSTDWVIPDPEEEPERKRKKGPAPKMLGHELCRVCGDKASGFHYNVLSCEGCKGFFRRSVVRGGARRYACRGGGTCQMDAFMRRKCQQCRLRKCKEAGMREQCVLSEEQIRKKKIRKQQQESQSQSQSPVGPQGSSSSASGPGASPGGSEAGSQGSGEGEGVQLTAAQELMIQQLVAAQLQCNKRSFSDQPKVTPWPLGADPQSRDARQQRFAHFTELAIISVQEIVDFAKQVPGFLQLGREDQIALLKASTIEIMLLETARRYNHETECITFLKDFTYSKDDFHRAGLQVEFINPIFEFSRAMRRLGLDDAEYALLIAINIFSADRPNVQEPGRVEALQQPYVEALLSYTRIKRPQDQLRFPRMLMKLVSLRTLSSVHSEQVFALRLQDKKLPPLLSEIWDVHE
T1 sequence (P19793 1-462 partner): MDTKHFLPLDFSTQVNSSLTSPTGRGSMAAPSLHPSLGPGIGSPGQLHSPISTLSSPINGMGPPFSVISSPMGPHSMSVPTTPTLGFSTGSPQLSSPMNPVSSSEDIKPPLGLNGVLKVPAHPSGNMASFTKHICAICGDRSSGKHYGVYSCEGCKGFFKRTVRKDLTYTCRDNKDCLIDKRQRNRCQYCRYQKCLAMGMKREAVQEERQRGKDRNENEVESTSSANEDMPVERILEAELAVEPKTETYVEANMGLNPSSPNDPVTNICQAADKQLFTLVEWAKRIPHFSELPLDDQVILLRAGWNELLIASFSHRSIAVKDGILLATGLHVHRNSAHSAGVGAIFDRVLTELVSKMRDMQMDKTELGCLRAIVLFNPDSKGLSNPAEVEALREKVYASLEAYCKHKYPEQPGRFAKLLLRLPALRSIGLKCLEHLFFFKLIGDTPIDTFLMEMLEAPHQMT
Kind of experiment: Co-transfection assay (LXRE luciferase reporter), LXRβ. Conditions: for EC50: CV-1 cells transfected with pCMX-hLXRβ and LXREx1-Tk-Luciferase, 20 hours incubation; for Emax: LXRβ co-transfection, relative to high control 1-(2,4-difluorobenzyl)-2-oxo-6-(4-phenoxyphenyl)-4-(trifluoromethyl)-1,2-dihydropyridine-3-carbonitrile, read-out: % Efficacy. In kind it is cell-based. The method, boiled down: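 CV-1 / pCMX-hLXRβ + LXREx1-Tk-Luc + β-gal; cpd 20 h, 37 °C, ≤0.5% DMSO; Steady-Glo luminescence. 11-pt ½-log curves, duplicate wells, sigmoidal fit → EC50; % efficacy vs high-control agonist, DMSO low control; mean of ≥2 expts.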
A general note: In a reporter assay the amount or activity of a reporter protein is the signal.

With `Cc1nc(C(F)(F)F)cn1-c1ccc(-c2cccc(S(C)(=O)=O)c2)cc1-n1nncc1-c1ccc(F)cc1` [Example 43, 5-(4-fluorophenyl)-1-{3′-(methylsulfonyl)-4-[2-methyl-4-(trifluoromethyl)-1H-imidazol-1-yl]biphenyl-3-yl}-1H-1,2,3-triazole], the EC50 was determined as 1.14 µM and the Emax worked out at 85%.

Take `Cc1nc(C(F)(F)F)cn1-c1ccc(-c2cccc(S(N)(=O)=O)c2)cc1-n1nncc1-c1ccc(OC(F)(F)F)cc1` [Example 44, 4′-[2-methyl-4-(trifluoromethyl)-1H-imidazol-1-yl]-3′-(5-{4-[(trifluoromethyl)oxy]phenyl}-1H-1,2,3-triazol-1-yl)biphenyl-3-sulfonamide]: the EC50 came to 1.27 µM and the Emax worked out at 95%.

On to `Cc1nc(C(F)(F)F)cn1-c1ccc(-c2cccc(S(C)(=O)=O)c2)cc1-n1nncc1-c1ccc2[nH]ccc2c1` [Example 45, 5-(1-{3′-(methylsulfonyl)-4-[2-methyl-4-(trifluoromethyl)-1H-imidazol-1-yl]biphenyl-3-yl}-1H-1,2,3-triazol-5-yl)-1H-indole], for which the EC50 amounted to 1.84 µM and the Emax came out at 53%.

On to `Cc1nc(C(F)(F)F)cn1-c1ccc(-c2cccc(S(C)(=O)=O)c2)cc1-n1nncc1-c1ccc(F)c(OC(F)(F)F)c1` [Example 46, 5-{4-fluoro-3-[(trifluoromethyl)oxy]phenyl}-1-{3′-(methylsulfonyl)-4-[2-methyl-4-(trifluoromethyl)-1H-imidazol-1-yl]biphenyl-3-yl}-1H-1,2,3-triazole], for which the EC50 was 2.31 µM and the Emax was 62%.

Consider `Cc1nc(C(F)(F)F)cn1-c1ccc(-c2cccc(S(C)(=O)=O)c2)cc1-n1nncc1-c1ccc(C#N)cc1` [Example 47, 4-(1-{3′-(methylsulfonyl)-4-[2-methyl-4-(trifluoromethyl)-1H-imidazol-1-yl]biphenyl-3-yl}-1H-1,2,3-triazol-5-yl)benzonitrile], for which a half-maximal response (EC50) required 2.54 µM and the Emax is 64%.

Regarding `Cc1ccc(-c2cnnn2-c2cc(-c3cc(F)c(CO)c(S(C)(=O)=O)c3)ccc2-n2cc(C(F)(F)F)nc2C)cc1` [Example 48, {3-fluoro-3′-[5-(4-methylphenyl)-1H-1,2,3-triazol-1-yl]-5-(methylsulfonyl)-4′-[2-methyl-4-(trifIuoromethyl)-1H-imidazol-1-yl]biphenyl-4-yl}methanol], the EC50 was found to be 0.158 µM and the Emax is 89%.

Turning to `Cc1nc(C(F)(F)F)cn1-c1ccc(-c2cccc(S(C)(=O)=O)c2)cc1-n1nncc1-c1ccc(OC(F)(F)F)cc1` [Example 49, 1-{3′-(methylsulfonyl)-4-[2-methyl-4-(trifluoromethyl)-1H-imidazol-1-yl]biphenyl-3-yl}-5-{4-[(trifluoromethyl)oxy]phenyl}-1H-1,2,3-triazole], a half-maximal response (EC50) required 0.164 µM and the Emax worked out at 105%.

On to `Cc1ccc(-c2cnnn2-c2cc(-c3cccc(S(C)(=O)=O)c3)ccc2-n2cc(C(F)(F)F)nc2C)cc1` [Example 50, 5-(4-methylphenyl)-1-{3′-(methylsulfonyl)-4-[2-methyl-4-(trifluoromethyl)-1H-imidazol-1-yl]biphenyl-3-yl}-1H-1,2,3-triazole], for which the response was half-maximal at 0.171 µM (EC50) and the Emax is 88%.

In the case of `Cc1nc(C(F)(F)F)cn1-c1ccc(-c2cccc(S(C)(=O)=O)c2)cc1-n1nncc1-c1ccc(N2CCCC2)cc1` [Example 51, 1-{3′-(methylsulfonyl)-4-[2-methyl-4-(trifluoromethyl)-1H-imidazol-1-yl]biphenyl-3-yl}-5-(4-pyrrolidin-1-ylphenyl)-1H-1,2,3-triazole], the EC50 worked out at 0.158 µM and the Emax is 107%.

As to `Cc1nc(C(F)(F)F)cn1-c1ccc(-c2cc(F)c(CO)c(S(C)(=O)=O)c2)cc1-n1nncc1-c1ccc2c(c1)OC(F)(F)O2` [Example 52, {3′-[5-(2,2-difluoro-1,3-benzodioxol-5-yl)-1H-1,2,3-triazol-1-yl]-3-fluoro-5-(methylsulfonyl)-4′-[2-methyl-4-(trifluoromethyl)-1H-imidazol-1-yl]biphenyl-4-yl}methanol], the midpoint of the response, the EC50, lay at 0.172 µM and the Emax was 82%.

With `Cc1nc(C(F)(F)F)cn1-c1ccc(-c2cccc(S(C)(=O)=O)c2)cc1-n1nncc1-c1ccc(OC(F)(F)F)c(Cl)c1` [Example 53, 5-{3-chloro-4-[(trifluoromethyl)oxy]phenyl}-1-{3′-(methylsulfonyl)-4-[2-methyl-4-(trifluoromethyl)-1H-imidazol-1-yl]biphenyl-3-yl}-1H-1,2,3-triazole], the midpoint of the response, the EC50, lay at 0.175 µM and the Emax amounted to 90%.

For `Cc1nc(C(F)(F)F)cn1-c1ccc(-c2cccc(S(C)(=O)=O)c2)cc1-n1nncc1-c1ccc(OC(F)(F)F)c(F)c1` [Example 54, 5-{3-fluoro-4-[(trifluoromethyl)oxy]phenyl)-1-{3′-(methylsulfonyl)-4-[2-methyl-4-(trifluoromethyl)-1H-imidazol-1-yl]biphenyl-3-yl}-1H-1,2,3-triazole], the EC50 amounted to 0.148 µM and the Emax was 84%.

On to `Cc1nc(C(F)(F)F)c(Cl)n1-c1ccc(-c2cccc(S(C)(=O)=O)c2)cc1-n1nncc1-c1ccc(OC(F)(F)F)cc1` [Example 55, 1-{4-[5-chloro-2-methyl-4-(trifluoromethyl)-1H-imidazol-1-yl]-3′-(methylsulfonyl)biphenyl-3-yl}-5-{4-[(trifluoromethyl)oxy]phenyl}-1H-1,2,3-triazole], for which the EC50 is 0.18 µM and the Emax stood at 110%.

`Cc1nc(C(F)(F)F)cn1-c1ccc(-c2cc(F)c(CO)c(S(C)(=O)=O)c2)cc1-n1nncc1-c1ccc(OC(F)(F)F)c(F)c1` [Example 56, {3-fluoro-3′-(5-{3-fluoro-4-[(trifluoromethyl)oxy]phenyl}-1H-1,2,3-triazol-1-yl)-5-(methylsulfonyl)-4′-[2-methyl-4-(trifluoromethyl)-1H-imidazol-1-yl]biphenyl-4-yl}methanol]: the EC50 came out at 0.133 µM and the Emax was 101%.

Consider `Cc1cc(OC(F)(F)F)ccc1-c1cnnn1-c1cc(-c2cccc(S(C)(=O)=O)c2)ccc1-n1cc(C(F)(F)F)nc1C` [Example 57, 1-{3′-(methylsulfonyl)-4-[2-methyl-4-(trifluoromethyl)-1H-imidazol-1-yl]biphenyl-3-yl}-5-{2-methyl-4-[(trifluoromethyl)oxy]phenyl}-1H-1,2,3-triazole], for which the EC50 was 0.215 µM and the Emax came out at 82%.

Regarding `Cc1nc(C(F)(F)F)cn1-c1ccc(-c2cc(F)c(CO)c(S(C)(=O)=O)c2)cc1-n1nncc1-c1ccc(Cl)cc1` [Example 58, {3′-[5-(4-chlorophenyl)-1H-1,2,3-triazol-1-yl]-3-fluoro-5-(methylsulfonyl)-4′-[2-methyl-4-(trifluoromethyl)-1H-imidazol-1-yl]biphenyl-4-yl}methanol], it took 0.217 µM to reach a half-maximal effect (EC50) and the Emax was 78%.

For the compound `Cc1nc(C(F)(F)F)c(Cl)n1-c1ccc(-c2cccc(S(C)(=O)=O)c2)cc1-n1nncc1-c1ccc(Cl)cc1Cl` [Example 59, 1-{4-[5-chloro-2-methyl-4-(trifluoromethyl)-1H-imidazol-1-yl]-3′-(methylsulfonyl)biphenyl-3-yl}-5-(2,4-dichlorophenyl)-1H-1,2,3-triazole], the EC50 is 0.218 µM and the Emax amounted to 95%.

In the case of `Cc1nc(C(F)(F)F)c(Cl)n1-c1ccc(-c2cc(Cl)c(CO)c(S(C)(=O)=O)c2)cc1-n1nncc1-c1ccc(OC(F)(F)F)cc1` [Example 60, {3-chloro-4′-[5-chloro-2-methyl-4-(trifluoromethyl)-1H-imidazol-1-yl]-5-(methylsulfonyl)-3′-(5-{4-[(trifluoromethyl)oxy]phenyl}-1H-1,2,3-triazol-1-yl)biphenyl-4-yl}methanol], it took 0.245 µM to reach a half-maximal effect (EC50) and the Emax is 121%.

Take `Cc1nc(C(F)(F)F)cn1-c1ccc(-c2cccc(S(C)(=O)=O)c2)cc1-n1nncc1-c1ccc(OC(F)(F)F)cc1F` [Example 61, 5-{2-fluoro-4-[(trifluoromethyl)oxy]phenyl}-1-{3′-(methylsulfonyl)-4-[2-methyl-4-(trifluoromethyl)-1H-imidazol-1-yl]biphenyl-3-yl}-1H-1,2,3-triazole]: the EC50 was found to be 0.265 µM and the Emax turned out to be 87%.
